Reference: PubChem BioAssay (NCI)
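Tested at 5 concentrations; 48 h exposure; 96-well plates; endpoints linearly interpolated, else capped at highest concentration. TGI marks complete inhibition of growth.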 *1 amine or outer side, *2 acyl side, *3 side chain or, on linkers, in order; H or OH if unused. Where a SMILES comes first, the peptide text is derived from it. [ ]: non-standard residue; d: D form. The star is where a group is joined. X31 = CC(=O)N(C)SCC(N[*:1])C(=O)[*:2]; Cbz = O=C(OCc1ccccc1)*; Bn = c1ccc(C*)cc1; For = O=C*

Experiments:
Experiment in all cases: NCI-60 cell line screen, 48 h
[1] = test system: SNB-75 CNS
[2] = test system: NCI-H226 lung
[3] = test system: OVCAR-8 ovarian
[4] = test system: MALME-3M melanoma
[5] = test system: SF-268 CNS
[6] = test system: HT29 colon
[7] = test system: HCT-116 colon
[8] = test system: SK-OV-3 ovarian
[9] = test system: IGROV1 ovarian
[10] = test system: HCT-15 colon
[11] = test system: HL-60(TB) leukemia
[12] = test system: CCRF-CEM leukemia
[13] = test system: MDA-MB-435
[14] = test system: HCC-2998 colon
[15] = test system: 786-0 renal
[16] = test system: SN12C renal
[17] = test system: A549 NSCLC
[18] = test system: T-47D breast
[19] = test system: COLO 205 colon
[20] = test system: BT-549 breast
[21] = test system: NCI/ADR-RES ovarian
[22] = test system: MOLT-4 leukemia
[23] = test system: SW-620 colon
[24] = test system: KM12 colon
[25] = test system: NCI-H522 lung
[26] = test system: RPMI-8226 leukemia
[27] = test system: SK-MEL-28 melanoma
[28] = test system: RXF 393 renal
[29] = test system: UO-31 renal
[30] = test system: NCI-H23 lung
[31] = test system: HS 578T breast
[32] = test system: SF-539 CNS
[33] = test system: MDA-N
[34] = test system: NCI-H460 lung
[35] = test system: SK-MEL-5 melanoma
[36] = test system: UACC-257 melanoma
[37] = test system: HOP-62 NSCLC
[38] = test system: K-562 leukemia
[39] = test system: HOP-92 NSCLC
[40] = test system: UACC-62 melanoma
[41] = test system: TK-10 renal
[42] = test system: DU-145 prostate
[43] = test system: LOX IMVI melanoma
[44] = test system: SNB-19 CNS
[45] = test system: OVCAR-4 ovarian
[46] = test system: ACHN renal
[47] = test system: SR leukemia
[48] = test system: EKVX NSCLC
[49] = test system: CAKI-1 renal
[50] = test system: M14 melanoma
[51] = test system: PC-3 prostate
[52] = test system: MCF7 breast
[53] = test system: SF-295 CNS
[54] = test system: MDA-MB-231 breast
[55] = test system: A498 renal
[56] = test system: OVCAR-3 ovarian
[57] = test system: U251 CNS
[58] = test system: SK-MEL-2 melanoma
[59] = test system: OVCAR-5 ovarian

CCOC(=O)/C(C#N)=C\c1ccc(N(CCC(=O)O)CCC(=O)O)c(I)c1
TGI [1]: > 10 µM | TGI [2]: > 10 µM | TGI [3]: > 10 µM | TGI [4]: > 10 µM | TGI [5]: > 10 µM | TGI [6]: > 10 µM | TGI [7]: > 10 µM | TGI [8]: > 10 µM | TGI [9]: > 10 µM | TGI [10]: > 10 µM | TGI [11]: > 10 µM | TGI [12]: > 10 µM | TGI [13]: > 10 µM | TGI [14]: > 10 µM | TGI [15]: > 10 µM | TGI [16]: > 10 µM | TGI [17]: > 10 µM | TGI [18]: > 10 µM | TGI [19]: > 10 µM | TGI [20]: > 10 µM | TGI [21]: > 10 µM | TGI [22]: > 10 µM | TGI [23]: > 10 µM | TGI [24]: > 10 µM | TGI [25]: > 10 µM | TGI [26]: > 10 µM | TGI [27]: > 10 µM | TGI [28]: > 10 µM | TGI [29]: > 10 µM | TGI [30]: > 10 µM | TGI [31]: > 10 µM | TGI [32]: > 10 µM | TGI [33]: > 10 µM | TGI [34]: > 10 µM | TGI [35]: > 10 µM | TGI [36]: > 10 µM | TGI [37]: > 10 µM | TGI [38]: > 10 µM | TGI [39]: > 10 µM | TGI [40]: > 10 µM | TGI [41]: > 10 µM | TGI [42]: > 10 µM | TGI [43]: > 10 µM | TGI [44]: > 10 µM | TGI [45]: > 10 µM | TGI [46]: > 10 µM | TGI [47]: > 10 µM | TGI [48]: > 10 µM | TGI [49]: > 10 µM | TGI [50]: > 10 µM | TGI [51]: > 10 µM | TGI [52]: > 10 µM | TGI [53]: > 10 µM | TGI [54]: > 10 µM

Cc1nc2ccccc2n1COC(Cn1ccnc1)c1ccc(Cl)cc1Cl (stereo not drawn)
TGI [1]: > 100 µM | TGI [3]: > 100 µM | TGI [4]: > 100 µM | TGI [5]: > 100 µM | TGI [6]: > 100 µM | TGI [7]: > 100 µM | TGI [9]: > 100 µM | TGI [10]: > 100 µM | TGI [11]: 85.4 µM | TGI [12]: > 100 µM | TGI [13]: > 100 µM | TGI [14]: > 100 µM | TGI [15]: > 100 µM | TGI [16]: > 100 µM | TGI [55]: > 100 µM | TGI [17]: > 100 µM | TGI [18]: > 100 µM | TGI [19]: > 100 µM | TGI [56]: > 100 µM | TGI [20]: 91.2 µM | TGI [21]: > 100 µM | TGI [22]: > 100 µM | TGI [23]: > 100 µM | TGI [24]: > 100 µM | TGI [25]: > 100 µM | TGI [26]: > 100 µM | TGI [27]: > 100 µM | TGI [57]: > 100 µM | TGI [58]: > 100 µM | TGI [59]: > 100 µM | TGI [29]: > 100 µM | TGI [30]: > 100 µM | TGI [31]: > 100 µM | TGI [32]: > 100 µM | TGI [33]: > 100 µM | TGI [34]: 46.4 µM | TGI [35]: 53.5 µM | TGI [36]: > 100 µM | TGI [37]: > 100 µM | TGI [38]: > 100 µM | TGI [39]: 77.6 µM | TGI [40]: > 100 µM | TGI [41]: > 100 µM | TGI [42]: > 100 µM | TGI [43]: > 100 µM | TGI [44]: > 100 µM | TGI [45]: > 100 µM | TGI [46]: > 100 µM | TGI [47]: > 100 µM | TGI [48]: > 100 µM | TGI [49]: 39 µM | TGI [50]: > 100 µM | TGI [51]: > 100 µM | TGI [52]: > 100 µM | TGI [53]: > 100 µM | TGI [54]: > 100 µM

CC(=O)N(C)SCC(NC(=O)C(Cc1ccccc1)NC(=O)OCc1ccccc1)C(=O)NC(Cc1ccccc1)C(=O)NC(Cc1cn(C=O)c2ccccc12)C(=O)NC(CCCCNC(=O)OCc1ccccc1)C(=O)NC(C(=O)NC(CSN(C)C(C)=O)C(=O)NC(C(N)=O)C(C)OCc1ccccc1)C(C)OCc1ccccc1 (stereo not drawn) (Cbz-F[X31]FW(For)K(Cbz)T(Bn)[X31]T(Bn)-NH2; configuration not given here)
TGI [1]: 36.9 µM | TGI [2]: > 100 µM | TGI [3]: > 100 µM | TGI [4]: > 100 µM | TGI [5]: > 100 µM | TGI [6]: > 100 µM | TGI [7]: > 100 µM | TGI [8]: 96.1 µM | TGI [9]: > 100 µM | TGI [10]: > 100 µM | TGI [11]: > 100 µM | TGI [12]: > 100 µM | TGI [13]: > 100 µM | TGI [14]: > 100 µM | TGI [15]: > 100 µM | TGI [16]: > 100 µM | TGI [17]: > 100 µM | TGI [18]: > 100 µM | TGI [19]: > 100 µM | TGI [56]: > 100 µM | TGI [20]: 68.1 µM | TGI [21]: > 100 µM | TGI [22]: > 100 µM | TGI [23]: > 100 µM | TGI [24]: > 100 µM | TGI [25]: > 100 µM | TGI [26]: > 100 µM | TGI [27]: > 100 µM | TGI [57]: > 100 µM | TGI [28]: 41.9 µM | TGI [58]: 28.7 µM | TGI [59]: > 100 µM | TGI [29]: > 100 µM | TGI [30]: > 100 µM | TGI [31]: > 100 µM | TGI [32]: > 100 µM | TGI [33]: > 100 µM | TGI [34]: > 100 µM | TGI [35]: > 100 µM | TGI [36]: > 100 µM | TGI [37]: > 100 µM | TGI [38]: > 100 µM | TGI [39]: 56.6 µM | TGI [40]: > 100 µM | TGI [41]: 57.2 µM | TGI [42]: > 100 µM | TGI [43]: > 100 µM | TGI [44]: 51.7 µM | TGI [45]: > 100 µM | TGI [46]: > 100 µM | TGI [47]: > 100 µM | TGI [48]: > 100 µM | TGI [50]: > 100 µM | TGI [51]: > 100 µM | TGI [52]: > 100 µM | TGI [53]: > 100 µM | TGI [54]: 30.5 µM

CC(=O)NC1C(OCc2ccccc2)OC(CO)C(O)C1OC(C)C(=O)NC(C(=O)N[C@@H](CCC(=O)NCCNCCNc1c2ccccc2nc2cccc([N+](=O)[O-])c12)C(N)=O)C(C)C (stereo partly drawn)
TGI [1]: > 100 µM | TGI [2]: > 100 µM | TGI [3]: > 100 µM | TGI [4]: > 100 µM | TGI [5]: > 100 µM | TGI [7]: 56.2 µM | TGI [8]: > 100 µM | TGI [9]: > 100 µM | TGI [10]: > 100 µM | TGI [11]: > 100 µM | TGI [12]: > 100 µM | TGI [13]: 29.3 µM | TGI [14]: 50.4 µM | TGI [15]: 76.9 µM | TGI [16]: > 100 µM | TGI [55]: > 100 µM | TGI [17]: 97 µM | TGI [18]: > 100 µM | TGI [19]: 56.7 µM | TGI [56]: > 100 µM | TGI [20]: > 100 µM | TGI [21]: > 100 µM | TGI [22]: 53.2 µM | TGI [23]: 58.5 µM | TGI [24]: 98.7 µM | TGI [26]: 58.7 µM | TGI [27]: > 100 µM | TGI [57]: > 100 µM | TGI [58]: 46.7 µM | TGI [29]: 64.6 µM | TGI [30]: > 100 µM | TGI [31]: > 100 µM | TGI [32]: 45.6 µM | TGI [33]: 54.5 µM | TGI [34]: > 100 µM | TGI [37]: > 100 µM | TGI [38]: 19.9 µM | TGI [39]: 69.9 µM | TGI [41]: > 100 µM | TGI [42]: > 100 µM | TGI [43]: > 100 µM | TGI [44]: > 100 µM | TGI [45]: > 100 µM | TGI [46]: 73.5 µM | TGI [47]: 5.24 µM | TGI [49]: > 100 µM | TGI [50]: 32.2 µM | TGI [51]: > 100 µM | TGI [52]: 41.5 µM | TGI [53]: > 100 µM | TGI [54]: > 100 µM
